From patent US20250360180A1, “ECHINOCANDIN COMPOUND, AND PREPARATION METHOD THEREFOR AND USE THEREOF” (Zhejiang University, priority 2022, published 2025) come the findings set out here.

In the assay the test system is Candida albicans ATCC 10231. Put plainly: Minimum inhibitory concentration (MIC) by broth microdilution method. As to conditions: for MIC value: broth microdilution in MH broth, 37° C., 12 hours, OD600, MIC = lowest concentration that inhibited the growth of more than 90% of the strains; for activity against Candida albicans (in words): summary statement of the MIC experiments. Type of assay: cell-based. On the procedure:
The minimum inhibitory concentration (MIC) values of echinocandin E and echinocandin F were determined by broth microdilution method, and the test strain was Candida albicans ATCC 10231. The MIC value was defined as the lowest antibiotic concentration that inhibited the growth of more than 90% of the strains. Amphotericin B was used as a positive control and echinocandin B as a reference, and each sample was subjected to three parallel experiments.
Candida albicans was cultured in Mueller-Hinton (MH) broth (50 mL 20× Nitrate Salts, 1 mL Trace Elements, and 10.0 g glucose, dissolved in 800 mL ddH2O, adjusted to pH 6.5, fixed to 1 L, added with 16.0 g agar powder, and sterilized at 121° C. for 20 min) (purchased from Hangzhou Basebio Biotechnology Co., Ltd. (Basebio)) and cultured at 37° C. and 180 rpm for 12-16 hours. The fungal solution concentration was controlled to […] by gradient dilution with MH broth.
The sample solution was prepared by dissolving the test samples (amphotericin B, echinocandin B, echinocandin E, echinocandin F) in DMSO to prepare a stock solution with a concentration of 40 μg/ml. An appropriate amount of sterile MH broth medium and the test compounds were added to a 96-well plate, and Candida albicans was quantitatively inoculated so that the total liquid volume in each well was 100 μL. The final concentrations of the compounds were 2, 1.5, 1, 0.8, 0.6, 0.4, 0.2, 0.1, 0.05 and 0 μg/ml, respectively, and DMSO (volume concentration of 5%) was used as a negative control.
The fungal concentration was measured at OD600 using an ELISA reader to determine the MIC value of each sample.

In brackets after ≈: the same amount, converted by molar mass.

As for `C[C@@H]1[C@H](O)[C@@H](C)/C=C/C=C/C=C/C=C/C=C/C=C/C=C/[C@H](O[C@@H]2O[C@H](C)[C@@H](O)[C@H](N)[C@@H]2O)C[C@@H]2O[C@](O)(C[C@@H](O)C[C@@H](O)[C@H](O)CC[C@@H](O)C[C@@H](O)CC(=O)O[C@H]1C)C[C@H](O)[C@H]2C(=O)O` [Amphotericin B, reference compound], the MIC value stood at 0.2 µg/mL (≈ 0.216 µM).

As for echinocandin B [reference compound], the MIC value came to 0.4 µg/mL.

Consider echinocandin E, for which the MIC value came to 0.6 µg/mL and the “activity against Candida albicans (in words)” value is on record as “good activity”. For echinocandin F, in that order: 1.0 µg/mL and “good activity”. On to echinocandin G, for which the MIC value is 0.8 µg/mL and the “activity against Candida albicans (in words)” value is listed as “good activity”. For echinocandin H the same measures were 0.8 µg/mL and “good activity”.
